Values joined by “and” are separate entries in the source; they are usually repeats but may differ in a detail not shown here. Equal entries are not always repeated. Where two headings read alike, the source gives them in different places.
Tests used:
clinical = details: both sexes, human, in vivo, 550 mg
Method: (§1) Over-encapsulation was utilized to maintain study blind. […] Approximately 50 older healthy female and male adult subjects (1:1 ratio) were randomized into 1 of 2 cohorts:Cohort 1 or Cohort 2, N=˜25 subjects per cohort.
There was a single AM fasting dose on Day 4 for both drugs. There was a 6-day wash-out period between drug cross-over.
Subjects were discharged on Day 4 following successful completion of all assessments and at the Investigator's discretion.
Subjects were then administered a single dose of their randomized treatment on the morning of Day 14 following an overnight fast of at least 8 hours. Subjects were discharged on Day 14 following successful completion of all assessments and at the Investigator's discretion.
An evening snack was served ≥3 hours following evening study medication administration. On Day 4 (Treatment Period 1) and Day 14 (Treatment Period 2), subjects were administered their assigned study drug once in the morning following an overnight fast of at least 8 hours (with approximately 240 mL of non-carbonated water). No additional fluids were allowed during the 1 hour pre- and post-dose.
Blood samples for PK were collected for Cohorts 1 and 2 at specified times during both periods, as follows: • Days 1 & 11:0 (pre-morning dose) • Days 2 & 12: no sampling. • Days 3 & 13:0 (pre-morning dose), and 1, 2, 3, 4, 6 (pre-mid-day dose), 7, 8, 9, 10, 12 (pre-evening dose), 13, 14, 15, 16, and 17 hours post-morning dose • Days 4 & 14:0 (pre-morning dose), and 1, 2, 3, 4, 6 (post-dose),

older, healthy subjects = assay: Crossover study Part 2: safety and tolerability (TEAEs), fed and fasted; format: in vivo, human
Source text: as §1, with “cohort. Subjects in each cohort were randomized to treatment sequence as follows: • Sequence A: Pirfenidone to LYT-100 • Sequence B: LYT-100 to pirfenidone” for “cohort.”

[1] = tested on: patients with Idiopathic Pulmonary Fibrosis (IPF); assay: IPF trial Part A: safety and tolerability (TEAEs, AESI, dose modifications, discontinuations); format: in vivo; details: 801 mg TID (N = 63)
Method: The primary objective was to determine the dose(s) to carry into Phase 3. […] Patients were randomized to one of the four treatments in a 1:1:1:1 ratio and stratified based on prior exposure to nintedanib (<6 months) versus nintedanib-naïve patients. Patients who completed the Double-blind Treatment Period (Part A) were offered participation in the Long-term Extension (Part B). […] For patients who participated in Part B, the follow-up was conducted at the end of Part B. A graphical illustration of an embodiment of the trial design is provided as FIG. 24B.
Safety endpoints included: Adverse events, concomitant medications, clinical laboratory findings (chemistry, hematology, urinalysis), physical examinations, ECGs, and vital signs. These will be summarized descriptively, where appropriate.
Tolerability endpoints included: Frequency of dose modifications (reductions and interruptions), time to first dose modification, (reduction or interruption), duration of adverse events of special interest, time to treatment discontinuation due to an adverse event of special interest and patient reported assessment of IPF symptoms, side-effects, severity, change and satisfaction.
In this study, AEs are reported for all patients from the time of consent until the completion of the Follow-up visit. AEs reported prior to the first dose are denoted as pre-treatment. SAEs are reported for all patients (randomized or not) from the time of consent. AEs reported from the time of consent to confinement on Day 0 were recorded as pre-treatment AEs.
Treatment emergent adverse events (TEAEs) are defined as an AE that occurs following first dose of study medication and were evaluated from the first administration of study drug on Day 1 until the Follow-up visit. […]
This study evaluated in particular the tolerability based on prioritized gastrointestinal adverse events (GI AEs). […]

[2] = tested on: patients with Idiopathic Pulmonary Fibrosis (IPF); assay: IPF trial Part A: clinical laboratory parameters, liver; format: in vivo, human; details: 801 mg TID (N = 63), N1 62
CYP1A2 = biological target: T1, CYP1A2 (Homo sapiens, UniProt P05177); assay: In vitro stability with recombinant human CYP1A2; format: in vitro ADME; details: recombinant human isozyme; read-out: t1/2 following incubation with CYP1A2 (converted)
T1 construct: host or cells: heterologous cell systems (not specified)
T1 sequence (P05177 1-516): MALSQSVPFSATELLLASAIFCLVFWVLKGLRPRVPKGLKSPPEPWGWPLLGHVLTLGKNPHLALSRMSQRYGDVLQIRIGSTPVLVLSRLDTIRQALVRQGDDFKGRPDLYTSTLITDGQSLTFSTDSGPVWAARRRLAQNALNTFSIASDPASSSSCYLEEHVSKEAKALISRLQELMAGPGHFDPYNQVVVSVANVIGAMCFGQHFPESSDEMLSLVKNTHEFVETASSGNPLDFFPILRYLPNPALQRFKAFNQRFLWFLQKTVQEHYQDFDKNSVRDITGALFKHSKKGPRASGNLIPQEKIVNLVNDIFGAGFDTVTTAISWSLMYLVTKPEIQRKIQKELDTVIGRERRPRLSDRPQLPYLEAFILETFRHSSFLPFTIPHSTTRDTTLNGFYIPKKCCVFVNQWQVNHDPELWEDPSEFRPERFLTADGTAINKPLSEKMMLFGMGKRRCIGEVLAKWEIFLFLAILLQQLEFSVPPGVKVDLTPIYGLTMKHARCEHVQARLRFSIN
Method: (§2) The half-life (t½) of each test article was determined.

CYP2C19 = biological target: T2, CYP2C19 (Homo sapiens, UniProt P33261); assay: In vitro stability with recombinant human CYP2C19; format: in vitro ADME; details: recombinant human isozyme; read-out: t1/2 following incubation with CYP2C19 (converted)
T2 construct: host or cells: heterologous cell systems (not specified)
T2 sequence (P33261 whole entry): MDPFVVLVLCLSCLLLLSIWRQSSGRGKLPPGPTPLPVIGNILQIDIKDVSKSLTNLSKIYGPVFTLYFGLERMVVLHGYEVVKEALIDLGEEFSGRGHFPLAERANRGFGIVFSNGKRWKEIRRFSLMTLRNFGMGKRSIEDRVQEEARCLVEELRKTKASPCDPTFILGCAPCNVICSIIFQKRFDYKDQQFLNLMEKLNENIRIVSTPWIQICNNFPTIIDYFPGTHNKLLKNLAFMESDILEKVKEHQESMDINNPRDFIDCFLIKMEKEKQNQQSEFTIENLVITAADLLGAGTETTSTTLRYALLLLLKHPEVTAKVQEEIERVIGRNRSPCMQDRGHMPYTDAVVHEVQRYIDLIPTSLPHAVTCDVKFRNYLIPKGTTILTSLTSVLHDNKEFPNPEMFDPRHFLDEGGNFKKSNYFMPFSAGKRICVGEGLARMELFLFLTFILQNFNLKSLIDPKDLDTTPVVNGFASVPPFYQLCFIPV
Method: as §2

CYP2D6 = biological target: T3, CYP2D6 (Homo sapiens, UniProt P10635); assay: In vitro stability with recombinant human CYP2D6; format: in vitro ADME; details: recombinant human isozyme; read-out: t1/2 following incubation with CYP2D6 (converted)
T3 construct: host or cells: heterologous cell systems (not specified)
T3 sequence (P10635 whole entry): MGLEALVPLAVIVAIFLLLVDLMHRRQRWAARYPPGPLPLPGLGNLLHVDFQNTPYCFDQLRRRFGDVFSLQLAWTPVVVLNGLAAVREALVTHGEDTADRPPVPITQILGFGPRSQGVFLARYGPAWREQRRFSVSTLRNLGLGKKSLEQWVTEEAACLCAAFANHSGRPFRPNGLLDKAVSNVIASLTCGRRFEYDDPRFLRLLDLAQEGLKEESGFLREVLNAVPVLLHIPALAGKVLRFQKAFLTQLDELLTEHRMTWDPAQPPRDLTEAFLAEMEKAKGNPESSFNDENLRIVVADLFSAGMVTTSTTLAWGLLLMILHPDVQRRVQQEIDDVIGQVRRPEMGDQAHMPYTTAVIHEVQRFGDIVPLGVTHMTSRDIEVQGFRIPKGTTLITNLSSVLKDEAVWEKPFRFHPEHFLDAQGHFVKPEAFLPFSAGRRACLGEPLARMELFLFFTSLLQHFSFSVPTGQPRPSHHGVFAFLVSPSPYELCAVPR
Method: as §2

patients with IPF [3] = details: cited from earlier work; for patients with IPF progression (decline ≥10% in % FVC or death over 52 weeks): Nathan 2018
patients with IPF [4] = details: cited from earlier work
[5] = study PIPF-005, 801 mg three times daily (2403 mg/day), healthy older subjects; cited from earlier work
[6] = tested on: rat BLM induced lung fibrosis model; assay: Rat bleomycin induced lung fibrosis model, Phase II (efficacy); details: bleomycin rats, LYT-100 400 mg/kg QD / nintedanib 60 mg/kg BID
Method: For Groups 4, 5, 6, and 7, bleomycin and vehicle dosing were conducted as indicated in Table 28 (0.45 mg/kg, at 1696 IU/mg of Bleomycin or saline on Day 1, 2, 3, 6 and 7).

[7] = pooled phase 3 (Noble 2016), one year, vs placebo
[8] = observational study (Cottin 2018)

What does the source list for `Cc1ccc(=O)n(-c2ccccc2)c1` [Pirfenidone, pirfenidone, reference compound]?
AUC(0-t) (clinical; AUC0-24, parent): 44100 ng·h/mL; Cmax (clinical; Cmax, parent): 12700 ng/mL; deaths or serious AEs (older, healthy subjects; Part 2): No deaths or serious AEs; TEAEs leading to study discontinuation, subjects (older, healthy subjects; in vivo): one; Discontinued, Primary Reason: Death [1]: 0 n (%); Alanine Aminotransferase (U/L) at Worst Post-Baseline, 3-5 ULN [2]: 1 (1.6) n (%); Alanine Aminotransferase (U/L) at Worst Post-Baseline, 5-8 ULN [2]: 0 n (%); Alanine Aminotransferase (U/L) at Worst Post-Baseline, >8 ULN [2]: 0 n (%); Alanine Aminotransferase (U/L) at Worst Post-Baseline, Total (>3 ULN) [2]: 1 (1.6) n (%); Alanine Aminotransferase or Aspartate Aminotransferase (U/L) at Worst Post-Baseline, 3-5 ULN [2]: 1 (1.6) n (%); Alanine Aminotransferase or Aspartate Aminotransferase (U/L) at Worst Post-Baseline, 5-8 ULN [2]: 0 n (%); Alanine Aminotransferase or Aspartate Aminotransferase (U/L) at Worst Post-Baseline, >8 ULN [2]: 0 n (%); Alanine Aminotransferase or Aspartate Aminotransferase (U/L) at Worst Post-Baseline, Total (>3 ULN) [2]: 1 (1.6) n (%); Aspartate Aminotransferase (U/L) at Worst Post-Baseline, 3-5 ULN [2]: 0 n (%); Aspartate Aminotransferase (U/L) at Worst Post-Baseline, 5-8 ULN [2]: 0 n (%); Aspartate Aminotransferase (U/L) at Worst Post-Baseline, >8 ULN [2]: 0 n (%); Aspartate Aminotransferase (U/L) at Worst Post-Baseline, Total (>3 ULN) [2]: 0 n (%); half-life (CYP1A2): 3.18 h; half-life (CYP2C19): 2.13 h; half-life (CYP2D6): 2.3 h; patients with IPF progression (decline ≥10% in % FVC or death over 52 weeks) (patients with IPF [3]; <90% dose intensity): 21.6%; patients with IPF progression (decline ≥10% in % FVC or death over 52 weeks) (patients with IPF [3]; >90% dose intensity): 11.6%; rate of permanent dose reductions (patients with IPF [3]; pooled phase 3 (Nathan 2018)): 31.5%; rate of treatment discontinuation (patients with IPF [3]; pooled phase 3 (Nathan 2018)): 15.2%; reduction of risk of death or disease progression (patients with IPF [3]; pooled phase 3 (Noble 2016), 1 year, vs placebo): 38%; FVC change, absolute difference vs placebo (patients with IPF [3]; pooled phase 3 (Noble 2016), 1 year): 148 mL; increase in proportion of patients with no decline in FVC % predicted (patients with IPF [3]; [7]): 59.3%; reduction in proportion of patients with ≥10% decline in FVC % predicted or death (patients with IPF [3]; [7]): 43.8%; mean change from baseline to 1 year in FVC (patients with IPF [3]; pooled phase 3 (Noble 2016), pirfenidone group): -216 mL; discontinuations due to adverse events associated with pirfenidone (patients with IPF [4]; [8]): 27.9%; patients on a lower dose by two years (patients with IPF [4]; [8]): 13.8%; patients who had discontinued treatment by two years (patients with IPF [4]; [8]): 64.9%; patients still on full dose (2,403 mg/day) by two years (patients with IPF [4]; observational study of 1,009 IPF patients (Cottin 2018), FIG. 1B): 21.3% and 21%; Cmax [5]: 11850 ng/mL

With `COC(=O)c1ccc2c(c1)NC(=O)/C2=C(\Nc1ccc(N(C)C(=O)CN2CCN(C)CC2)cc1)c1ccccc1` [Nintedanib, nintedanib, reference compound] as the molecule, how does the “hydroxyproline content (μg per mg of wet lung) vs bleomycin/vehicle” value ([6]; Day 8-27) read?
Its value is “reduced hydroxyproline content”.

What about the “lung fibrosis scores (histopathology) vs bleomycin/vehicle” value ([6]; Day 8-27) of the same molecule?
Its value is “did not affect the fibrosis scores”.

What about the “lung sections with fibrosis Score 1” value ([6]; Day 8-27) of the same molecule?
Its value is 37%.

What about the “lung sections with fibrosis Score 2” value ([6]; Day 8-27) of the same molecule?
The value was 33%.

And the “lung weight ratio (% of body weight) vs bleomycin/vehicle” value ([6]; Day 8-27)?
Its value is “trend for lower lung weight ratios”.

And the “mean lung weight vs bleomycin/vehicle” value ([6]; Day 8-27)?
The value was “reduced lung weight”.

What about the “median lung fibrosis scores vs bleomycin/vehicle” value ([6]; Day 8-27) of the same molecule?
The value was “reduced median fibrosis scores”.

What about the “total left lung hydroxyproline (μg per left lung) vs bleomycin/vehicle” value ([6]; Day 8-27) of the same molecule?
The value was “lower levels of total hydroxyproline”.

What about the body weight gain ([6]; oral gavage Day 8-27) of the same molecule?
The body weight gain was “showed modest improvement after Day 8 and the rate of body weight gain remained slower compared with the other groups”.

Source: patent publication US12622899B2 (PureTech LYT 100, Inc., priority 2018, dated 2026)
